Experimental data from patent US20220257491A1, “Prebiotic Oral Care Compositions and Methods” (Colgate-Palmolive Company, priority 2021, published 2022).
“And” between values parts separate entries of the source, which are not always exact repeats. Equal values may be shown once. Marks after values point to notes of the source that are not given here.

Tests used:
Format in all cases: cell-based
A. actinomycetemcomitans = test: Multi-species biofilm composition: absolute abundance of A. actinomycetemcomitans; settings: mean±SD n=3
Procedure: (§1) Biofilms are grown vertically on Calcium Deficient Hydroxyapatite (CAD-HA) disks (Hitemco Medical, Old Bethpage, USA) using the Amsterdam Active Adhesion model. Biofilms are allowed to establish during 24 h (37° C., 170 rpm) under micro-aerophilic conditions (6% O2, 7% CO2, 7% H2, 80% N2). After this 24 h, disks are rinsed 3 times a day for 3 minutes (RT, 250 rpm), for 3 consecutive days, by transferring the lid containing the disks to a new 24-well plate containing 2 mL/well of the appropriate substrate solution. As a negative control, PBS (pH 5.7) without substrate supplementation is used. After each rinsing step, disks are shortly dip-rinsed in a new 24-well plate containing fresh modified BHI medium (2 mL/well) to remove remaining substrate traces. Subsequently, the lid is transferred to another 24-well plate containing fresh modified BHI medium (2 mL/well), followed by incubation (micro-aerophilic, 37° C., 170 rpm) until the next rinsing step.
(§2) NADM, N-acetyl-D-glucosamine (“NADG”) and D-(+)-mannose are selected to determine their effects on multi-species biofilm composition. […] decrease in absolute numbers in at least four of the pathogenic bacterial species tested in the assay, compared to the control, the results of which are described in Table 1 below. Absolute abundances of bacterial species are shown as mean±SD (n=3) logarithmic values of the genome equivalents per millilitre (log(Geq/mL)).

A. naeslundii = test: Multi-species biofilm composition: absolute abundance of A. naeslundii; settings: mean±SD n=3
Procedure: as §1
(§3) NADM, N-acetyl-D-glucosamine (“NADG”) and D-(+)-mannose are selected to determine their effects on multi-species biofilm composition. Repeated rinsing of the biofilms with the substrates at a concentration of 1M results in a significant decrease in absolute numbers in at least four of the pathogenic bacterial species tested in the assay, compared to the control, the results of which are described in Table 1 below. Absolute abundances of bacterial species are shown as mean±SD (n=3) logarithmic values of the genome equivalents per millilitre (log(Geq/mL)).

A. viscosus = test: Multi-species biofilm composition: absolute abundance of A. viscosus; settings: mean±SD n=3
Procedure: as §1, §2

multi-species biofilms = test: Multi-species biofilm organic acid balances (supernatant); settings: >0 production, <0 consumption, mean±SD n=3
Procedure: as §1
To examine the effect of NADM and the influence of the orientation and absence/presence of the N-acetyl group on organic acid production and consumption, supernatant samples from substrate-treated or untreated multi-species biofilms are analysed. […] When comparing relevant significant differences between substrate conditions, an increase in acetate production is observed for NADM compared to D-(+)-mannose (3084±174 vs. 1934±56 mg/L).

[1] = tested on: human oral keratinocytes (HOK-18A); test: Inflammatory mediator gene expression in keratinocytes exposed to substrate-treated biofilms; settings: for Fold change in inflammatory mediator gene expression: IL-1β / Fold change in inflammatory mediator gene expression: IL-6 / Fold change in inflammatory mediator gene expression: IL-8 / Fold change in inflammatory mediator gene expression: MMP-8 / Fold change in inflammatory mediator gene expression: TNF-α: relative to control (=1), geometric mean (95% C.I.) n=3
Procedure: Cultures of immortalized human oral keratinocytes (HOK-18A) are grown. The relative inflammatory potential of the substrate-treated multi-species biofilms is evaluated by analyzing the expression of five inflammatory mediator genes in human oral keratinocytes (HOKs) exposed to the substrate-treated biofilms. […] The IL-8 levels in the cellular supernatant are determined as well. RNA is converted to cDNA and relative expression of inflammatory mediator genes is determined as described above with respect to the cellular housekeeping gene (3-actin.
In HOKs exposed to substrate-treated (substrate concentrations of 1 M) multi-species biofilms, mostly decreases in inflammatory mediator gene expression are observed and measured via SYBR RT-qPCR, the results of which are detailed in Table 6.
All substrates are dissolved in PBS at a concentration of 1 M (upper part) or 1% (w/v) (lower part). Values between 0 and 1 represent relative downregulation, values >1 represent relative upregulation. […] For such values, statistically significant differences between two experimental conditions are marked with ‘#1’ (vs. NADM), ‘#2’ (vs. NADG), ‘#3’ (vs. D-(+)-mannose) (P<0.05).

multi-species biofilm = test: Relative multi-species biofilm composition (groups of bacterial species); settings: mean±SD n=3
Procedure: as §1, §2
Relative abundances of the different groups (beneficial/commensals, periodontal pathogens, cariogenic pathogens) of bacterial species are shown as mean±SD (n=3) percentage of the genome equivalents per millilitre (% (Geq/mL)). […] NADM: N-acetyl-D-mannosamine; NADG: N-acetyl-D-glucosamine.

S. mutans = test: Multi-species biofilm composition: absolute abundance of S. mutans; settings: for Absolute abundance S. mutans: mean±SD n=3
Procedure: as §1, §3

[2] = tested on: A. actinomycetemcomitans virulence genes; test: Multi-species biofilm virulence gene expression, SYBR RT-qPCR: A. actinomycetemcomitans; settings: for Fold Change in virulence gene expression: aae / Fold Change in virulence gene expression: apaH / Fold Change in virulence gene expression: cdtB / Fold Change in virulence gene expression: emaA / Fold Change in virulence gene expression: flp / Fold Change in virulence gene expression: ltxA / Fold Change in virulence gene expression: omp29 / Fold Change in virulence gene expression: omp100 / Fold Change in virulence gene expression: orf859 / Fold Change in virulence gene expression: pgA / Fold Change in virulence gene expression: vapA / Fold Change in virulence gene expression: vppA: relative to control (=1), 2^-ΔΔCt, geometric mean n=3
Procedure: as §1
The expression of 33 virulence genes from 4 periodontal pathogens is analysed to evaluate the relative virulence of the substrate-treated biofilms. For all three substrates, virulence gene expression is determined relatively to the control, and these values are also compared between substrates when this is relevant (Tables 5a-5d).

[3] = biofilm rinsed with substrate 1%
[4] = biofilm rinsed with substrate 1M

## CC(=O)N[C@@H]1C(O)O[C@H](CO)[C@@H](O)[C@@H]1O (stereo partly drawn) [NADM, N-acetyl-D-mannosamine]
A. actinomycetemcomitans; substrate 1%(w/v) in PBS
  Absolute abundance Aa (A. actinomycetemcomitans): 9.51 ± 0.05 log(Geq/mL)
A. actinomycetemcomitans; substrate 1 M in PBS
  Absolute abundance Aa (A. actinomycetemcomitans): 7.84 ± 0.53 log(Geq/mL)
A. naeslundii; substrate 1%(w/v) in PBS
  Absolute abundance An (A. naeslundii): 7.60 ± 0.22 log(Geq/mL)
A. naeslundii; substrate 1 M in PBS
  Absolute abundance An (A. naeslundii): 6.73 ± 0.39 log(Geq/mL)
A. viscosus; substrate 1%(w/v) in PBS
  Absolute abundance Av (A. viscosus): 7.73 ± 0.09 log(Geq/mL)
A. viscosus; substrate 1 M in PBS
  Absolute abundance Av (A. viscosus): 8.35 ± 0.30 log(Geq/mL)
multi-species biofilms; substrate 1%(w/v)
  acetate level in biofilm supernatant: 396 ± 11 mg/L
  butyrate level in biofilm supernatant: 1989 ± 44 mg/L
  formate level in biofilm supernatant: 3768 ± 174 mg/L
  lactate level in biofilm supernatant: 125 ± 0 mg/L
  propionate level in biofilm supernatant: 1891 ± 79 mg/L
multi-species biofilms; substrate 1 M
  butyrate level in biofilm supernatant: 541±52 mg/L and 541 ± 52*^, #2, 3 mg/L
  formate level in biofilm supernatant: 791.9 ± 138.27 mg/L and 792 ± 138 mg/L
  lactate level in biofilm supernatant: 125 ± 0 mg/L
  propionate level in biofilm supernatant: 2052 ± 54 mg/L
[1]; [3]
  Fold change in inflammatory mediator gene expression: IL-1β: 0.83 (0.66-1.04) fold
  Fold change in inflammatory mediator gene expression: IL-6: 0.73 (0.48-1.13) fold
  Fold change in inflammatory mediator gene expression: IL-8: 1.32 (1.14-1.53) fold
  Fold change in inflammatory mediator gene expression: MMP-8: 0.62 (0.21-1.84) fold
  Fold change in inflammatory mediator gene expression: TNF-α: 0.69 (0.48-1.00) fold
[1]; [4]
  Fold change in inflammatory mediator gene expression: IL-1β: 0.59 (0.30-1.14) fold
  Fold change in inflammatory mediator gene expression: IL-6: 0.86 (0.34-2.18) fold
  Fold change in inflammatory mediator gene expression: IL-8: 0.10 (0.05-0.17)* fold
  Fold change in inflammatory mediator gene expression: MMP-8: 1.66 (0.82-3.35)* fold
  Fold change in inflammatory mediator gene expression: TNF-α: 0.73 (0.64-0.83) fold
[1]; substrate 1 M
  MMP-8 gene expression increase: 1.7 fold
multi-species biofilm; substrate 1%(w/v) in PBS
  Relative abundance Beneficials/Commensals: 61.62 ± 4.88 % (Geq/mL)
  Relative abundance Cariogenic Pathogens: 0.05 ± 0.01 % (Geq/mL)
  Relative abundance Periodontal Pathogens: 38.32 ± 4.86 % (Geq/mL)
multi-species biofilm; substrate 1 M in PBS
  Relative abundance Beneficial or commensals: 97.61±0.28 % (Geq/mL)
  Relative abundance Cariogenic Pathogens: 0.06 ± 0.04 % (Geq/mL)
  Relative abundance Periodontal Pathogens: 2.34±0.31 % (Geq/mL) and 2.34 ± 0.31^#2, 3 % (Geq/mL)
S. mutans; substrate 1%(w/v)
  Decrease in S. mutans vs control: 0.5 log(Geq/mL)
S. mutans; substrate 1%(w/v) in PBS
  Absolute abundance S. mutans: 7.01 ± 0.05 log(Geq/mL)
S. mutans; substrate 1 M
  Change in S. mutans numbers compared to the control: −1.2 log(Geq/mL)
S. mutans; substrate 1 M in PBS
  Absolute abundance S. mutans: 7.41 ± 0.44 log(Geq/mL)
[2]; substrate 1% (w/v)
  Fold Change in virulence gene expression: aae: 0.92 fold
  Fold Change in virulence gene expression: apaH: 0.81 fold
  Fold Change in virulence gene expression: cdtB: 0.59 fold
  Fold Change in virulence gene expression: emaA: 0.40 fold
  Fold Change in virulence gene expression: flp: 0.35 fold
  Fold Change in virulence gene expression: ltxA: 0.29 fold
  Fold Change in virulence gene expression: omp29: 0.76 fold
  Fold Change in virulence gene expression: omp100: 0.42 fold
  Fold Change in virulence gene expression: orf859: 0.57 fold
  Fold Change in virulence gene expression: pgA: 1.07 fold
  Fold Change in virulence gene expression: vapA: 0.82 fold
  Fold Change in virulence gene expression: vppA: 1.01 fold
[2]; substrate 1%(w/v)
  A. actinomycetemcomitans gene expression decrease: flp, emaA and omp100: 2.4- to 2.9 fold
[2]; substrate 1M
  Fold Change in virulence gene expression: aae: 0.27 fold
  Fold Change in virulence gene expression: apaH: 0.25 fold
  Fold Change in virulence gene expression: cdtB: 0.31 fold
  Fold Change in virulence gene expression: emaA: 0.36 fold
  Fold Change in virulence gene expression: flp: 0.85 fold
  Fold Change in virulence gene expression: ltxA: 0.01 fold
  Fold Change in virulence gene expression: omp29: 0.48 fold
  Fold Change in virulence gene expression: omp100: 0.04 fold
  Fold Change in virulence gene expression: orf859: 0.11 fold
  Fold Change in virulence gene expression: pgA: 3.53 fold
  Fold Change in virulence gene expression: vapA: 0.74 fold
  Fold Change in virulence gene expression: vppA: 0.81 fold
